Laboratory results reported in publication PMC9116245, “New 1,2,3-triazole linked ciprofloxacin-chalcones induce DNA damage by inhibiting human topoisomerase I& II and tubulin polymerization” (Journal of Enzyme Inhibition and Medicinal Chemistry, 2022).

Assays:
Test in all cases: NCI one-dose screen
Format in all cases: cell-based
786-0 = settings: Homo sapiens; 786-0, 10 µM; read-out: Growth Percent
Experimental: (§1) For screening of anticancer properties, all the developed compounds were chosen by the (NCI) for in-vitro antitumor evaluation. The assay was carried out using 59 human cancer cell lines obtained from nine tumour subpanels (breast, ovarian, melanoma, leukaemia, renal, CNS, lung, prostate, and colon cancer cell lines). Compounds were assessed at a 10 µM concentration. […] Also, hybrids 4a, 4b, 4e, 4i and 4j produced significant anti-proliferative effect in several cancer cells, particularly in leukaemia (RPMI-8226) and colon (HCT116) cells with growth percent of 47.87, −14.59, −24.56, −24.42, −15.84, −9.74, −53.36, −10.26, −31.29, and −39.51%, respectively.
(§2) The method description for NCI anticancer screening is provided in detail in the standard NCI-60 testing protocol.

BT-549 = settings: Homo sapiens; BT-549, 10 µM; read-out: Growth Percent
Experimental: as §1, §2

COLO 205 = settings: Homo sapiens; COLO 205, 10 µM; read-out: Growth Percent
Experimental: as §1, §2

DU-145 = settings: Homo sapiens; DU-145, 10 µM; read-out: Growth Percent
Experimental: as §1, §2

EKVX = settings: Homo sapiens, read-out: Growth Percent
Experimental: as §1, §2

HCT-15 = settings: Homo sapiens; HCT-15, 10 µM; read-out: Growth Percent
Experimental: as §1, §2

HOP-62 = settings: Homo sapiens; HOP-62, 10 µM; read-out: Growth Percent
Experimental: as §1, §2

HOP-92 = settings: Homo sapiens; HOP-92, 10 µM; read-out: Growth Percent
Experimental: as §1, §2

HT29 = settings: Homo sapiens, HT-29; HT29, 10 µM; read-out: Growth Percent
Experimental: as §1, §2

K-562 = settings: Homo sapiens, K562; K-562, 10 µM; read-out: Growth Percent
Experimental: as §1, §2

KM12 = settings: Homo sapiens; KM12, 10 µM; read-out: Growth Percent
Experimental: as §1, §2

M14 = settings: Homo sapiens; M14, 10 µM; read-out: Growth Percent
Experimental: as §1, §2

MDA-MB-231/ATCC = settings: Homo sapiens, read-out: Growth Percent
Experimental: as §1, §2

MDA-MB-468 = settings: Homo sapiens; MDA-MB-468, 10 µM; read-out: Growth Percent
Experimental: as §1, §2

MOLT-4 = settings: Homo sapiens; MOLT-4, 10 µM; read-out: Growth Percent
Experimental: as §1, §2

NCI-H23 = settings: Homo sapiens; NCI-H23, 10 µM; read-out: Growth Percent
Experimental: as §1, §2

NCI-H460 = settings: Homo sapiens; NCI-H460, 10 µM; read-out: Growth Percent
Experimental: as §1, §2

NCI-H522 = settings: Homo sapiens; NCI-H522, 10 µM; read-out: Growth Percent
Experimental: as §1, §2

NCI/ADR-RES = settings: Homo sapiens, read-out: Growth Percent
Experimental: as §1, §2

OVCAR-8 = settings: Homo sapiens; OVCAR-8, 10 µM; read-out: Growth Percent
Experimental: as §1, §2

PC-3 = settings: Homo sapiens; PC-3, 10 µM; read-out: Growth Percent
Experimental: as §1, §2

RXF 393 = settings: Homo sapiens; RXF 393, 10 µM; read-out: Growth Percent
Experimental: as §1, §2

SF-268 = settings: Homo sapiens; SF-268, 10 µM; read-out: Growth Percent
Experimental: as §1, §2

SF-295 = settings: Homo sapiens; SF-295, 10 µM; read-out: Growth Percent
Experimental: as §1, §2

SF-539 = settings: Homo sapiens; SF-539, 10 µM; read-out: Growth Percent
Experimental: as §1, §2

SK-MEL-28 = settings: Homo sapiens; SK-MEL-28, 10 µM; read-out: Growth Percent
Experimental: as §1, §2

SK-MEL-2 = settings: Homo sapiens; SK-MEL-2, 10 µM; read-out: Growth Percent
Experimental: as §1, §2

SK-MEL-5 = settings: Homo sapiens; SK-MEL-5, 10 µM; read-out: Growth Percent
Experimental: as §1, §2

SK-OV-3 = settings: Homo sapiens; SK-OV-3, 10 µM; read-out: Growth Percent
Experimental: as §1, §2

SN12C = settings: Homo sapiens, read-out: Growth Percent
Experimental: as §1, §2

SNB-19 = settings: Homo sapiens; SNB-19, 10 µM; read-out: Growth Percent
Experimental: as §1, §2

SNB-75 = settings: Homo sapiens; SNB-75, 10 µM; read-out: Growth Percent
Experimental: as §1, §2

SR = settings: Homo sapiens, read-out: Growth Percent
Experimental: as §1, §2

TK-10 = settings: Homo sapiens; TK-10, 10 µM; read-out: Growth Percent
Experimental: as §1, §2

U251 = settings: Homo sapiens, U-251; U251, 10 µM; read-out: Growth Percent
Experimental: as §1, §2

UACC-62 = settings: Homo sapiens; UACC-62, 10 µM; read-out: Growth Percent
Experimental: as §1, §2

UO-31 = settings: Homo sapiens; UO-31, 10 µM; read-out: Growth Percent
Experimental: as §1, §2

Compound | activity at 10 µM (786-0) | activity at 10 µM (BT-549) | activity at 10 µM (COLO 205) | activity at 10 µM (DU-145) | activity at 10 µM (EKVX) | activity at 10 µM (HCT-15) | activity at 10 µM (HOP-62) | activity at 10 µM (HOP-92) | activity at 10 µM (HT29) | activity at 10 µM (K-562) | activity at 10 µM (KM12) | activity at 10 µM (M14) | activity at 10 µM (MDA-MB-231/ATCC) | activity at 10 µM (MDA-MB-468) | activity at 10 µM (MOLT-4) | activity at 10 µM (NCI-H23) | activity at 10 µM (NCI-H460) | activity at 10 µM (NCI-H522) | activity at 10 µM (NCI/ADR-RES) | activity at 10 µM (OVCAR-8) | also measured
O=C(/C=C/c1ccc(Cl)cc1)c1ccc(-n2cc(CN3CCN(c4cc5c(cc4F)c(=O)c(C(=O)O)cn5C4CC4)CC3)nn2)cc1 [Compound 4c, (E)-7-(4-((1-(4-(3-(4-chlorophenyl)acryloyl)phenyl)-1H-1,2,3-triazol-4-yl)methyl)piperazin-1-yl)-1-cyclopropyl-6-fluoro-4-oxo-1,4-dihydroquinoline-3-carboxylic acid] | 54.2% | 76.7% | 108% | 76.3% | 94% | 91.6% | 79.6% | 79.6% | 79.2% | 56% | 73.7% | 84.4% | 89.4% | 66% | 84.1% | 79.7% | 76.1% | 80.1% | 87% | 62% | activity at 10 µM (PC-3): 79.3%; activity at 10 µM (RXF 393): 58.3%; activity at 10 µM (SF-268): 70.4%; activity at 10 µM (SF-295): 91.7%; activity at 10 µM (SF-539): 69%; activity at 10 µM (SK-MEL-28): 88.2%; activity at 10 µM (SK-MEL-2): 96.8%; activity at 10 µM (SK-MEL-5): 77.6%; activity at 10 µM (SK-OV-3): 80%; activity at 10 µM (SN12C): 45.8%; activity at 10 µM (SNB-19): 72%; activity at 10 µM (SNB-75): 72.3%; activity at 10 µM (SR): 24.1%; activity at 10 µM (TK-10): 83.3%; activity at 10 µM (U251): 42.1%; activity at 10 µM (UACC-62): 73.8%; activity at 10 µM (UO-31): 62.5%
COc1cc(/C=C/C(=O)c2ccc(-n3cc(CN4CCN(c5cc6c(cc5F)c(=O)c(C(=O)O)cn6C5CC5)CC4)nn3)cc2)cc(OC)c1OC [Compound 4j, (E)-1-cyclopropyl-6-fluoro-4-oxo-7–(4-((1–(4-(3-(3,4,5-trimethoxyphenyl)acryloyl)phenyl)-1H-1,2,3-triazol-4-yl)methyl)piperazin-1-yl)-1,4-dihydroquinoline-3-carboxylic acid] | 43.6% | 51% | 60.9% | 45.8% | 80% | 33.8% | 38.7% | 81.6% | 4.76% | 7.81% | 8.81% | 28.2% | 55.4% | -7.19% | 10.5% | 50.6% | 53.1% | 49.5% | 82% | 39.7% | activity at 10 µM (PC-3): 9.95%; activity at 10 µM (RXF 393): 4.51%; activity at 10 µM (SF-268): 59.5%; activity at 10 µM (SF-295): 67.5%; activity at 10 µM (SF-539): 7.09%; activity at 10 µM (SK-MEL-28): 34.6%; activity at 10 µM (SK-MEL-2): 97.4%; activity at 10 µM (SK-MEL-5): 50.9%; activity at 10 µM (SK-OV-3): 67.5%; activity at 10 µM (SN12C): 14.9%; activity at 10 µM (SNB-19): 44.7%; activity at 10 µM (SNB-75): 65.5%; activity at 10 µM (SR): -12.4%; activity at 10 µM (TK-10): 80%; activity at 10 µM (U251): 10.6%; activity at 10 µM (UACC-62): 54.1%; activity at 10 µM (UO-31): 43.5%
